Like-named read-outs stand apart in the source and are kept apart here.
Experiments:
Assay type in all cases: in vivo
[1] = test system: wheat glume blotch (Leptosphaeria nodorum); experiment: Efficacy test on wheat glume blotch, seed treatment (Test Example 9); conditions: single compound
Experimental: An agent comprising the following compound listed in Table 2 (active ingredient A) and the compound listed in Table 11 (H35: active ingredient B) as active ingredients, was prepared in accordance with the above Formulation Example. This agent was diluted with water to a predetermined concentration to obtain a test solution. A predetermined amount of the test solution was put in a glass bottle of 5 ml, and 0.5 g (approximately 15 grains) of wheat seeds (variety: Haruyutaka) were added, stirred and air-dried. In each pot with a diameter of 7 cm having soil put therein, 3 grains were seeded and grown for 14 days. To seedlings of the wheat (variety: Haruyutaka) grown to a 1-leaf stage, a spore suspension (100,000 cfu/ml) of wheat glume blotch (Leptosphaeria nodorum) was spray-inoculated, and the pot was placed in a moist chamber set in temperature of 20° C. and humidity more than 95% RH for 48 hours. After placing the pot for 7 days in a glass greenhouse, the ratio of the formed lesion area occupying the inoculated leaves was measured, and the preventive value was calculated in accordance with the following formula. Preventive value=[1−(treated plot lesion area ratio/untreated plot lesion area ratio)]×100
(§1) Further, from the preventive value at each agent concentration, synergy was calculated by using the Colby method (Colby S. R. 1976, Weeds 15, 20-22).

[2] = test system: cucumber gray mold fungus (Botrytis cinerea); experiment: Preventive test against gray mold on cucumber cotyledon leaves, spray treatment, preventive value and Colby expected value (Test Examples 1-4); conditions: single compound; for pest or weed control at 3 ppm / pest or weed control at 1 ppm: Botrytis cinerea, 72 h; for pest or weed control at 3 ppm: read-out: Preventive value
In short: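 Cucumber (Sagami-hanjiro) cotyledons sprayed with water-diluted formulations of ingredient A, B or mixtures, air-dried, detached, and drop-inoculated with Botrytis cinerea conidia mixed 1:1 with PDA. After 3 days at 20 °C, lesion area gave preventive value versus untreated; Colby expected value E=X+Y−XY/100 computed for mixtures.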

[3] = test system: wheat powdery mildew (Blumeria graminis); experiment: Efficacy test on wheat powdery mildew, seed treatment (Test Example 10); conditions: wheat (Norin 61)
Experimental: An agent comprising the following compound listed in Table 2 (active ingredient A) and the compound listed in Table 11 (H35: active ingredient B) as active ingredients, was prepared in accordance with the above Formulation Example. This agent was diluted with water to a predetermined concentration to obtain a test solution. A predetermined amount of test solution was put in a glass bottle of 5 ml, and 0.5 g (approximately 15 grains) of wheat seeds (variety: Norin 61) were added, stirred and air-dried. In each pot with a diameter of 7 cm and having soil put therein, 3 grains were seeded and grown for 14 days. To the wheat seedlings grown to the 1-leaf stage, a spore suspension (100,000 cfu/ml) of wheat powdery mildew (Blumeria graminis) was spray-inoculated. After placing the pot in a glass greenhouse for 10 days, the ratio of the formed lesion area occupying the inoculated leaves was measured, and the preventive value was calculated in accordance with the following formula. Preventive value=[1−(treated plot lesion area ratio/untreated plot lesion area ratio)]×100
as §1

[4] = test system: cucumber downy mildew (Pseudoperenospora cubensis); experiment: Efficacy test on cucumber downy mildew, spray treatment and prevention test (Test Example 7); conditions: single compound 250 ppm; lesion area ratio
Experimental: An agent comprising the following compound listed in Table 2 (active ingredient A) and the compound listed in Table 6 (C40: active ingredient B) as active ingredients, was prepared in accordance with the above Formulation Example. This agent was diluted with water to a predetermined concentration to obtain a test solution. Then, to seedlings of cucumber (variety: Sagami-hanjiro) at 1.5-leaf stage grown in a pot with a diameter of 7 cm, the test solution was applied by a spray gun in an amount of 10 ml per pot, for treatment. One day after the treatment, a spore suspension (2×100,000 cfu/ml) of cucumber downy mildew (Pseudoperenospora cubensis), was spray-inoculated, and the pot was placed in a moist chamber set in temperature of 20° C. and humidity more than 95% RH for 24 hours. After placing the pot in a glass greenhouse for 6 days, the ratio of the formed lesion area occupying the inoculated leaves was measured, and the preventive value was calculated in accordance with the following formula. Preventive value=[1−(treated plot lesion area ratio/untreated plot lesion area ratio)]×100
Further, from the preventive value for each agent concentration, synergy was calculated by using the Colby method (Colby S. R. 1976, Weeds 15, 20-22).

[5] = test system: cucumber powdery mildew (Sphaerotheca cucurbitae); experiment: Efficacy test on cucumber powdery mildew, irrigation treatment (Test Example 11); conditions: concentration 500 ppm, cucumber (Sagami-hanjiro)
Experimental: An agent comprising the following compound listed in Table 2 (active ingredient A) and the compound listed in Table 6 (C18: active ingredient B), was prepared in accordance with the above Formulation Example. This agent was diluted with water to a predetermined concentration to obtain a test solution. 5 ml of the test solution was irrigated by a pipette to the close-to-ground part of cucumber seedlings at the 1 leaf stage (variety: Sagami-hanjiro), grown in a styrol cup with a diameter of 10 cm, and next day, the seedlings were transplanted to the to 4 cun pots. Then, after cultivation for 7 days in a glass greenhouse, to the first true leaf of the cucumber, a spore suspension (100,000 cfu/ml) of cucumber powdery mildew (Sphaerotheca cucurbitae) was inoculated by spraying. After 10 days in a glass greenhouse, the ratio of the formed lesion area occupying the inoculated leaves was measured, and the preventive value was calculated in accordance with the following formula. Preventive value=[1−(treated plot lesion area ratio/untreated plot lesion area ratio)]×100
as §1

[6] = processing amount 5 mg/1 g seed
[7] = processing amount 10 mg/1 g seed

SMILES | Preventive value [1, 6] | Preventive value [1, 7] | Preventive value ([2]; Test Example 1, 3 ppm spray) | Preventive value ([2]; Test Example 3, 3 ppm spray) | Preventive value ([2]; Test Example 4, 3 ppm spray) | Preventive value [3, 6] | Preventive value [3, 7] | Preventive value [4] | Preventive value [5] | Preventive value ([2]; Test Example 1, 1 ppm spray, cucumber cotyledon, 3 days at 20° C.) | Preventive value ([2]; Test Example 3, 1 ppm spray) | Preventive value ([2]; Test Example 4, 1 ppm spray) | pest or weed control at 3 ppm ([2]; Test Example 1, 3 ppm spray) | pest or weed control at 3 ppm ([2]; Test Example 3, 3 ppm spray) | pest or weed control at 3 ppm ([2]; Test Example 4, 3 ppm spray) | pest or weed control at 1 ppm ([2]; Test Example 2, 1 ppm spray) | pest or weed control at 1 ppm ([2]; Test Example 3, 1 ppm spray) | pest or weed control at 1 ppm ([2]; Test Example 4, 1 ppm spray)
CC(C)O/N=C(/CNC(=O)c1ccccc1C(F)(F)F)c1ncc(Cl)cc1Cl [Compound No. 4] | 70 | 75 | 75 | 70 | 60 | 97 | 99 | 0 | 60 |  |  |  |  |  |  |  |  | 
COc1c(Cl)cnc(C(CNC(=O)c2ccccc2C(F)(F)F)=NOC(C)C)c1Cl [Compound No. 9] | 75 | 77 |  |  |  | 100 | 100 | 0 | 95 | 75 | 70 | 72 |  |  |  |  |  | 
CC#Cc1cnc(/C(CNC(=O)c2cn(C)nc2C(F)F)=N\OC(C)C)c(Cl)c1 [Compound No. 20, (Z)—N-[2-[3-chloro-5-(1-propynyl)pyridin-2-yl]-2-(isopropoxyimino)ethyl]-3-difluoromethyl-1-methyl-1H-pyrazole-4-carboxamide] | 90 | 99 |  |  |  | 100 | 100 | 5 | 100 |  |  |  | 63% | 65% | 65% |  |  | 
CC(C)O/N=C(/CNC(=O)c1cn(C)nc1C(F)F)c1ncc(C#CC2CC2)cc1Cl [Compound No. 25, (Z)—N-[2-[3-chloro-5-(cyclopropylethynyl)pyridin-2-yl]-2-(isopropoxyimino)ethyl]-3-difluoromethyl-1-methyl-1H-pyrazole-4-carboxamide] | 83 | 95 |  |  |  | 100 | 100 | 5 | 100 |  |  |  |  |  |  | 63% | 75% | 75%
CC(C)ON=C(CNC(=O)c1ccccc1C(F)(F)F)c1ncc(C(F)(F)F)cc1Cl [compound 14] | 41 | 82 | 75 | 75 | 65 | 97 | 100 | 0 | 22.5 |  |  |  |  |  |  |  |  | 
CON=C(CNC(=O)c1cn(C)nc1C(F)F)c1ncc(C#CC(C)(C)C)cc1Cl [compound 28] | 77 | 88 | 75 | 77 | 75 | 100 | 100 | 5 | 75 |  |  |  |  |  |  |  |  | 
